Data from ChEMBL document CHEMBL1153245, “A profile of the in vitro anti-tumor activity of imidazolium-based ionic liquids” (2010).

Tests used:
Type in all cases: functional
TK-10 = test: Anticancer activity against human TK10 cells assessed cell growth at 10 uM after 48 hrs by sulforhodamine B assay relative to control
HCT-15 = test: Anticancer activity against human HCT15 cells assessed cell growth at 10 uM after 48 hrs by sulforhodamine B assay relative to control
NCI-H226 = test: Anticancer activity against human NCI-H226 cells assessed cell growth at 10 uM after 48 hrs by sulforhodamine B assay relative to control
SK-MEL-5 = test: Anticancer activity against human SK-MEL-5 cells assessed cell growth at 10 uM after 48 hrs by sulforhodamine B assay relative to control
OVCAR-5 = test: Anticancer activity against human OVCAR5 cells assessed cell growth at 10 uM after 48 hrs by sulforhodamine B assay relative to control
SK-MEL-2 = test: Anticancer activity against human SK-MEL-2 cells assessed cell growth at 10 uM after 48 hrs by sulforhodamine B assay relative to control
NCI-H460 = test: Anticancer activity against human NCI-H460 cells assessed cell growth at 10 uM after 48 hrs by sulforhodamine B assay relative to control
UACC-257 = test: Anticancer activity against human UACC257 cells assessed cell growth at 10 uM after 48 hrs by sulforhodamine B assay relative to control
HOP-62 = test: Anticancer activity against human HOP62 cells assessed cell growth at 10 uM after 48 hrs by sulforhodamine B assay relative to control
ACHN = test: Anticancer activity against human ACHN cells assessed cell growth at 10 uM after 48 hrs by sulforhodamine B assay relative to control
SF-268 = test: Anticancer activity against human SF268 cells assessed cell growth at 10 uM after 48 hrs by sulforhodamine B assay relative to control
HOP-92 = test: Anticancer activity against human HOP92 cells assessed cell growth at 10 uM after 48 hrs by sulforhodamine B assay relative to control
MDA-MB-231 = test: Anticancer activity against human MDA-MB-231 cells assessed cell growth at 10 uM after 48 hrs by sulforhodamine B assay relative to control
K562 = test: Anticancer activity against human K562 cells assessed cell growth at 10 uM after 48 hrs by sulforhodamine B assay relative to control

| SMILES | Activity (TK-10) | Activity (HCT-15) | Activity (NCI-H226) | Activity (SK-MEL-5) | Activity (OVCAR-5) | Activity (SK-MEL-2) | Activity (NCI-H460) | Activity (UACC-257) | Activity (HOP-62) | Activity (ACHN) | Activity (SF-268) | Activity (HOP-92) | Activity (MDA-MB-231) | Activity (K562) |
| --- | --- | --- | --- | --- | --- | --- | --- | --- | --- | --- | --- | --- | --- | --- |
| CCCCCCCC[n+]1ccn(C)c1.F[P-](F)(F)(F)(F)F | 57.87% | 97.27% | 72.91% | 76.82% | 96.06% | 83.03% | 92.86% | 72.49% | 79.02% | 67.29% | 96.73% | 96.72% | 65.53% | 70.78% |
| CCCCCCCC[n+]1ccn(C)c1.F[B-](F)(F)F | 76.77% | 97.47% | 75.04% | 81.77% | 92.12% | 90.35% | 98.66% | 87.94% | 91.23% | 70.72% | 103.08% | 87.53% | 78.93% | 81.46% |
| Cn1cc[n+](Cc2ccccc2)c1.F[P-](F)(F)(F)(F)F | 133.23% | 106.14% | 99.73% | 104.4% | 101.34% | 108.02% | 106.8% | 106.42% | 27.45% | 96.35% | 108.05% | 109.04% | 113.82% | 70.16% |
| Cn1cc[n+](CCO)c1.O=S(=O)([N-]S(=O)(=O)C(F)(F)F)C(F)(F)F | 125.47% | 90.93% | 101.7% | 100.98% | – | 97.37% | 114.83% | 93.35% | 90.22% | 97.02% | 104.78% | 74.53% | 104.59% | 80.37% |
| CCCCCC[n+]1ccn(C)c1.O=S(=O)([N-]S(=O)(=O)C(F)(F)F)C(F)(F)F | 124.14% | 105.5% | 87.92% | 78.78% | 105.87% | 102.62% | 90.77% | 87.47% | 89.75% | 88.98% | 109.15% | 114.14% | 86.26% | 101.77% |
